Test results as given in article PMC4965013, “Open Source Drug Discovery with the Malaria Box Compound Collection for Neglected Diseases and Beyond” (PLoS Pathogens, 2016).

Columns and labels:
P. falciparum = assay: EC50 listed in S2 Table Metabolomics (used to set the concentration tested); format: cell-based; details: Plasmodium falciparum; EC50 used for Factor_XEC50 in metabolomics; read-out: EC50_nM
[1] = tested on: P. falciparum 3D7 trophozoites; assay: Metabolomic fingerprint profiling LC-MS; format: cell-based, Plasmodium falciparum; parameters: UDP-D-glucose / ADP-D-glucose: unit not given here; details: for Acetyllysine / N-acetyl-L-ornithine / N-carbamoyl-L-aspartate / NADPH / dAMP / dCMP / dTDP / dTMP / dTTP / dihydroorotate / orotate / DLH / DLS/SDL/SID / PD / PEE / PVNF / 3-phosphoglycerate / ADP-D-glucose / ATP / CDP / D-sedoheptulose-1/7-phosphate / FAD / GMP / NAD+ / NADP+ / Octoluse Bisphosphate / Pyroglutamic acid / UDP-D-glucose / UDP-D-glucuronate / UDP-N-acetyl-glucosamine / UDP / UMP / UTP / a-ketoglutarate / citrate/isocitrate / cytidine / dATP / dGMP/AMP / fumarate / glucose-1/6-phosphate / glycerate / guanine / guanosine / hypoxanthine / indole / inosine / nicotinate / ornithine / phosphoenolpyruvate / pyruvate / ribose-phosphate / sarcosine/alanine / sn-glycerol-3-phosphate / succinate/methylmalonic acid / uridine / xanthosine: S2 Table Metabolomics; for Acetyllysine: metabolite Acetyllysine; for N-acetyl-L-ornithine: metabolite N-acetyl-L-ornithine; for N-carbamoyl-L-aspartate: metabolite N-carbamoyl-L-aspartate; for NADPH: metabolite NADPH; for dAMP: metabolite dAMP; for dCMP: metabolite dCMP; for dTDP: metabolite dTDP; for dTMP: metabolite dTMP; for dTTP: metabolite dTTP; for dihydroorotate: metabolite dihydroorotate; for orotate: metabolite orotate; for DLH: peptide DLH; for DLS/SDL/SID: peptide DLS/SDL/SID; for PD: peptide PD; for PEE: peptide PEE; for PVNF: peptide PVNF; for 3-phosphoglycerate: metabolite 3-phosphoglycerate; for ADP-D-glucose: metabolite ADP-D-glucose; for ATP: metabolite ATP; for CDP: metabolite CDP; for CDP / D-sedoheptulose-1/7-phosphate / GMP / Octoluse Bisphosphate / UDP / UMP / UTP / citrate/isocitrate / dGMP/AMP / fumarate / glucose-1/6-phosphate / glycerate / guanine / guanosine / inosine / pyruvate / sarcosine/alanine / succinate/methylmalonic acid / uridine / xanthosine: change in metabolite level after compound treatment; for D-sedoheptulose-1/7-phosphate: metabolite D-sedoheptulose-1/7-phosphate; for FAD: metabolite FAD; for GMP: metabolite GMP; for NAD+: metabolite NAD+; for NADP+: metabolite NADP+; for Octoluse Bisphosphate: metabolite Octoluse Bisphosphate; for Pyroglutamic acid: metabolite Pyroglutamic acid; for UDP-D-glucose: metabolite UDP-D-glucose; for UDP-D-glucuronate: metabolite UDP-D-glucuronate; for UDP-N-acetyl-glucosamine: metabolite UDP-N-acetyl-glucosamine; for UDP: metabolite UDP; for UMP: metabolite UMP; for UTP: metabolite UTP; for a-ketoglutarate: metabolite a-ketoglutarate; for citrate/isocitrate: metabolite citrate/isocitrate; for cytidine: metabolite cytidine; for dATP: metabolite dATP; for dGMP/AMP: metabolite dGMP/AMP; for fumarate: metabolite fumarate; for glucose-1/6-phosphate: metabolite glucose-1/6-phosphate; for glycerate: metabolite glycerate; for guanine: metabolite guanine; for guanosine: metabolite guanosine; for hypoxanthine: metabolite hypoxanthine; for indole: metabolite indole; for inosine: metabolite inosine; for 2_3-Diphosphoglyceric acid / 4-phosphopantothenate / 6-phospho-D-gluconate / FMN / IMP / Pyrophosphate / Sedoheptoluse bisphosphate / cyclic-AMP / glutathione disulfide / lactate / myo-inositol: metabolite level change after treatment; for nicotinate: metabolite nicotinate; for ornithine: metabolite ornithine; for phosphoenolpyruvate: metabolite phosphoenolpyruvate; for pyruvate: metabolite pyruvate; for ribose-phosphate: metabolite ribose-phosphate; for sarcosine/alanine: metabolite sarcosine/alanine; for sn-glycerol-3-phosphate: metabolite sn-glycerol-3-phosphate; for succinate/methylmalonic acid: metabolite succinate/methylmalonic acid; for uridine: metabolite uridine; for xanthosine: metabolite xanthosine

SMILES: Cc1cc(NC(=O)C2c3ccccc3C(=O)N(CC(C)C)C2c2cccs2)no1 (stereo not drawn) [MMV006429]
- EC50 (P. falciparum): 32.8 nM
- Acetyllysine [1]: -4.876
- N-acetyl-L-ornithine [1]: -3.5354
- N-carbamoyl-L-aspartate [1]: -2.585
- NADPH [1]: 1.978
- dAMP [1]: 2.292
- dCMP [1]: 1.167
- dTDP [1]: 1.627
- dTMP [1]: 3.344
- dTTP [1]: 1.446
- dihydroorotate [1]: -3.6651
- orotate [1]: -0.181
- DLH [1]: -5.907
- DLS/SDL/SID [1]: -4.536
- PD [1]: -2.845
- PEE [1]: -3.543
- PVNF [1]: -6.513
- 3-phosphoglycerate [1]: 0.34
- ADP-D-glucose [1]: -0.1376
- ATP [1]: -1.344
- CDP [1]: -0.4641
- D-sedoheptulose-1/7-phosphate [1]: -1.187
- FAD [1]: -1.625
- GMP [1]: -1.884
- NAD+ [1]: -0.4933
- NADP+ [1]: -0.001455
- Octoluse Bisphosphate [1]: -2.069
- Pyroglutamic acid [1]: 0.2334
- UDP-D-glucose [1]: -0.07653
- UDP-D-glucuronate [1]: -0.002659
- UDP-N-acetyl-glucosamine [1]: 0.06871
- UDP [1]: -1.216
- UMP [1]: -0.6265
- UTP [1]: -1.299
- a-ketoglutarate [1]: 0.2879
- citrate/isocitrate [1]: -0.09158
- cytidine [1]: 0.5285
- dATP [1]: 0.0138
- dGMP/AMP [1]: -0.6616
- fumarate [1]: -0.1647
- glucose-1/6-phosphate [1]: -1.368
- glycerate [1]: -0.8344
- guanine [1]: 0.5068
- guanosine [1]: 1.214
- hypoxanthine [1]: 0.09881
- indole [1]: 0.1757
- inosine [1]: 0.2569
- 2_3-Diphosphoglyceric acid [1]: -1.036
- 4-phosphopantothenate [1]: -0.6242
- 6-phospho-D-gluconate [1]: -0.2953
- FMN [1]: -0.07748
- IMP [1]: -0.08419
- Pyrophosphate [1]: -1.06
- Sedoheptoluse bisphosphate [1]: -0.9732
- cyclic-AMP [1]: -0.7986
- glutathione disulfide [1]: -0.4517
- lactate [1]: -0.7779
- myo-inositol [1]: -1.114
- nicotinate [1]: 0.9425
- ornithine [1]: -0.1056
- phosphoenolpyruvate [1]: 0.447
- pyruvate [1]: -2.0102
- ribose-phosphate [1]: -0.6145
- sarcosine/alanine [1]: -1.58
- sn-glycerol-3-phosphate [1]: 1.267
- succinate/methylmalonic acid [1]: 0.2625
- uridine [1]: 1.463
- xanthosine [1]: -1.351

SMILES: COc1ccc2c(c1)OC(O)(C(F)(F)C(F)(F)F)CC2=O (stereo not drawn) [MMV007839]
- EC50 (P. falciparum): 283 nM
- Acetyllysine [1]: -0.1495
- N-acetyl-L-ornithine [1]: -0.3633
- N-carbamoyl-L-aspartate [1]: -1.795
- NADPH [1]: -0.4001
- dAMP [1]: -1.537
- dCMP [1]: -0.8612
- dTDP [1]: -1.865
- dTMP [1]: -1.855
- dTTP [1]: -0.1915
- dihydroorotate [1]: -1.4167
- orotate [1]: -2.224
- DLH [1]: -0.6186
- DLS/SDL/SID [1]: -1.11
- PD [1]: 0.5838
- PEE [1]: -0.1635
- PVNF [1]: -0.3342
- 3-phosphoglycerate [1]: 0.9102
- ADP-D-glucose [1]: -0.2
- ATP [1]: -0.07659
- CDP [1]: -1.957
- D-sedoheptulose-1/7-phosphate [1]: -0.1553
- FAD [1]: -0.4884
- GMP [1]: -0.7332
- NAD+ [1]: -0.1711
- NADP+ [1]: -0.2719
- Octoluse Bisphosphate [1]: 0.7306
- Pyroglutamic acid [1]: 0.1304
- UDP-D-glucose [1]: -0.2042
- UDP-D-glucuronate [1]: -0.2026
- UDP-N-acetyl-glucosamine [1]: -0.2915
- UDP [1]: -2.077
- UMP [1]: -0.8849
- UTP [1]: -0.5295
- a-ketoglutarate [1]: -0.1816
- citrate/isocitrate [1]: 0.3799
- cytidine [1]: 0.004906
- dATP [1]: -0.1041
- dGMP/AMP [1]: -1.779
- fumarate [1]: -0.2064
- glucose-1/6-phosphate [1]: -0.5084
- glycerate [1]: 3.453
- guanine [1]: -0.7539
- guanosine [1]: -0.466
- hypoxanthine [1]: 0.3062
- indole [1]: 0.0845
- inosine [1]: 0.6443
- 2_3-Diphosphoglyceric acid [1]: 0.2433
- 4-phosphopantothenate [1]: -0.5485
- 6-phospho-D-gluconate [1]: 0.05032
- FMN [1]: -0.6664
- IMP [1]: -0.6059
- Pyrophosphate [1]: 0.1105
- Sedoheptoluse bisphosphate [1]: 0.5834
- cyclic-AMP [1]: -1.0489
- glutathione disulfide [1]: -0.5477
- lactate [1]: 0.3101
- myo-inositol [1]: 0.232
- nicotinate [1]: 0.1131
- ornithine [1]: 0.4692
- phosphoenolpyruvate [1]: 1.103
- pyruvate [1]: 2.0227
- ribose-phosphate [1]: 0.6152
- sarcosine/alanine [1]: 0.4418
- sn-glycerol-3-phosphate [1]: 0.2795
- succinate/methylmalonic acid [1]: -0.36
- uridine [1]: -0.244
- xanthosine [1]: -0.1676

SMILES: COc1ccc(C(=O)Nc2nonc2-c2ccc(OC)c(OC)c2)cc1Cl [MMV011567]
- EC50 (P. falciparum): 516 nM
- Acetyllysine [1]: -2.7765
- N-acetyl-L-ornithine [1]: -1.047
- N-carbamoyl-L-aspartate [1]: -1.546
- NADPH [1]: -0.479
- dAMP [1]: 2.616
- dCMP [1]: 7.615
- dTDP [1]: 4.376
- dTMP [1]: 5.592
- dTTP [1]: 4.192
- dihydroorotate [1]: -1.311
- orotate [1]: 1.606
- DLH [1]: -3.738
- DLS/SDL/SID [1]: -3.085
- PD [1]: -0.447
- PEE [1]: -2.659
- PVNF [1]: -4.149
- 3-phosphoglycerate [1]: -0.4312
- ADP-D-glucose [1]: -0.3179
- ATP [1]: 0.7262
- CDP [1]: 1.853
- D-sedoheptulose-1/7-phosphate [1]: -0.5728
- FAD [1]: -0.6926
- GMP [1]: -3.051
- NAD+ [1]: -0.6365
- NADP+ [1]: -0.4288
- Octoluse Bisphosphate [1]: -1.352
- Pyroglutamic acid [1]: 0.8228
- UDP-D-glucose [1]: 0.2841
- UDP-D-glucuronate [1]: 0.3235
- UDP-N-acetyl-glucosamine [1]: 0.4364
- UDP [1]: 1.166
- UMP [1]: 0.1995
- UTP [1]: 0.7659
- a-ketoglutarate [1]: -0.1289
- citrate/isocitrate [1]: 1.575
- cytidine [1]: 0.6834
- dATP [1]: 1.434
- dGMP/AMP [1]: -0.9068
- fumarate [1]: 0.5595
- glucose-1/6-phosphate [1]: -0.4437
- glycerate [1]: -0.2059
- guanine [1]: 1.129
- guanosine [1]: 0.9628
- hypoxanthine [1]: 0.8431
- indole [1]: 0.1357
- inosine [1]: -0.4655
- 2_3-Diphosphoglyceric acid [1]: -0.4768
- 4-phosphopantothenate [1]: 0.1624
- 6-phospho-D-gluconate [1]: 0.2149
- FMN [1]: 0.2743
- IMP [1]: 0.2415
- Pyrophosphate [1]: -0.9055
- Sedoheptoluse bisphosphate [1]: -0.2891
- cyclic-AMP [1]: 0.1677
- glutathione disulfide [1]: 0.2649
- lactate [1]: -0.6986
- myo-inositol [1]: -1.672
- nicotinate [1]: 1.088
- ornithine [1]: 0.1615
- phosphoenolpyruvate [1]: -0.2076
- pyruvate [1]: -1.296
- ribose-phosphate [1]: -0.6006
- sarcosine/alanine [1]: -1.205
- sn-glycerol-3-phosphate [1]: 0.6609
- succinate/methylmalonic acid [1]: -0.1426
- uridine [1]: 0.07808
- xanthosine [1]: 0.9674
